Source: EP0236913A2, “Aryl-azolylmethyl-benzocyclo-alkene derivatives, process for their preparation and their use” (HOECHST AKTIENGESELLSCHAFT, priority 1986, dated 1987)
Values after ≈ are worked out from the molar mass of the structure shown.

Columns and labels:
[1] = tested on: Weizenmehltau (Erysiphe graminis); experiment: wheat powdery mildew, curative spray test on wheat plants (Versuch I); format: in vivo; conditions: untreated infected control = 100 %
Procedure: Weizenpflanzen werden im 3-Blattstadium mit Konidien des Weizenmehltaus (Erysiphe graminis) stark inokuliert und in einem Gewächshaus bei 20°C und einer relativen Luftfeuchte von 90 - 95% aufgestellt. 3 Tage nach Inokulation werden die Pflanzen mit den in Tabelle 6 aufgeführten Verbindungen in den angegebenen Wirkstoffkonzentrationen gleichmäßig benetzt. Nach einer Inkubationszeit von 10 Tagen werden die Pflanzen auf den Befall mit Weizenmehltau untersucht. Der Befallsgrad wird ausgedrückt in % befallener Blattfläche, bezogen auf unbehandelte, infizierte Kontrollpflanzen (= 100% Befall). Das Ergebnis ist in der Tabelle 6 zusammengefaßt.

[2] = tested on: Candida albicans (200/175); experiment: in vitro antimycotic serial dilution test (microtitration technique); format: cell-based; conditions: read-out: Minimale Hemmkonzentration
[3] = tested on: Microsporum canis (150/120); experiment: as above; format: cell-based; conditions: read-out: Minimale Hemmkonzentration
Text: (§1) Die in vitro-Prüfungen auf antimykotische Wirkung wurden im Reihenverdünnungstest an Hauptpilzen (Trichophyton mentagrophytes, Trichophyton rubrum, Microsporum canis), Hefepilzen (Candida Albicans) und Schimmelpilzen (Aspergillus niger) durchgeführt (Material und Methodik: Mikrotitrationstechnik veröffentlicht in Mykosen 27,14 (1984). Wie aus Tabelle 4 ersichtlich, zeigen bei diesen in vitro-Prüfungen die erfindungsgemäßen Verbindungen gute antimykotische Eigenschaften,die denjenigen der Referenzsubstand Clotrimazol überlegen sind.

[4] = tested on: Trichophyton rubrum (101/58); experiment: as above; format: cell-based; conditions: read-out: Minimale Hemmkonzentration
Text: as §1

[5] = tested on: Trichophyton mentagrophytes (100/25); experiment: as above; format: cell-based; conditions: read-out: Minimale Hemmkonzentration
Text: as §1

[6] = tested on: Aspergillus niger (500/284); experiment: as above; format: cell-based; conditions: read-out: Minimale Hemmkonzentration
Text: as §1

[7] = tested on: Trichophyton mentagrophytes; experiment: local in vivo efficacy in experimentally infected guinea pigs, dermal treatment; parameters: species or system Meerschweinchen (Stamm Pirbright white); conditions: Dermal 5 x 0.1 %; for Mykosen (Durchmesser in mm) Präparat + Vehikel x2: from day 3 after infection, mean, n = 6 measurements; for Mykosen Differenz (%): difference relative to Clotrimazol = 100; for Mykosen (Durchmesser in mm) Differenz x1 - x2: vehicle control side minus treated side
Text: Als Beispiel für die hohe lokale in vivo Wirksamkeit der erfindungsgemäßen Verbindungen werden Behandlungsergebnisse an experimentell mit Trichophyton mentagrophytes infizierten Labortieren angeführt.
Zur Feststellung der lokalen Wirksamkeit wurden jeweils zwei 450-500 g schwere Meerschweinchen (Stamm Pirbright white) mit 1,5 x 10^4 Konidien/Tier in die Epidermis, verteilt auf 6 Infektionspunkte, infiziert.
Die Behandlung der Tiere erfolgte dermal ab dem 3. Tag nach der Infektion an 5 aufeinanderfolgenden Tagen durch Aufbringen einer 0,1 %igen Präparatlösung auf 3 Infektionsstellen einer Rückenseite. Die andere Rückenseite wurde mit Vehikel ohne Präparat auf gleiche Weise behandelt.
Neben den mit den erfindungsgemäßen Substanzen behandelten Tieren wurden zwei Tiere mit der Referenzsubstanz Clotrimazol behandelt, zwei Tiere blieben nach der Infektion unbehandelt.

[8] = tested on: Pentetrazol-induzierte Krämpfe; experiment: antagonism of pentetrazol-induced convulsions (PTZ); format: in vivo, Maus; conditions: mouse; pentetrazol 125 mg/kg s.c. 1 h after oral test substance; tonic extensor convulsions; read-out: ED50 (mg/kg p.o.) Ptz
Procedure: Antagonismus gegen Pentetrazol-induzierte Krämpfe (Maus) (PTZ)
(§2) Methode: • Gruppen von 10 männlichen Mäusen (Stamm: NMRI, SPF-71, KF) im Gewicht von 18-22 g werden in diesem Versuch verwendet. Die zu prüfenden Substanzen werden in einer 1 %igen Aufschwemmung von Tylose (Methyl-hydroxy-ethyl-cellulose) in Wasser suspendiert und per Schlundsonde in einem Volumen von 10 ml/kg Körpergewicht oral verabreicht. Die Kontrollgruppe erhält ein entsprechendes Volumen Tylosesuspension ohne Prüfsubstanz.
Pentetrazol (Cardiazol (R)) wird in wäßriger Lösung in einer Dosis von 125 mg/kg Körpergewicht 1 Stunde nach Verabreichung der Prüfsubstanzen subcutan injiziert. Diese Dosis erzeugt bei 90-100 % der Kontrolltiere innerhalb der Beobachtungszeit von 60 Minuten nach der Injektion tonische Extensorkrämpfe der hinteren Extremitäten. Als Schutzwirkung der Prüfsubstanz wird gewertet, wenn die Anzahl der krampfenden Tiere gegenüber der Kontrollgruppe vermindert ist.
Bei vorhandener Schutzwirkung der Prüfsubstanz wird eine mittlere effektive Dosis (ED-50) grafisch (Litchfield and Wilcoxon) oder rechnerisch(Probitanalyse) ermittelt.
Literatur: E.A. SWINYARD, J.Pharmacol.Exp. Ther. 106, (1952), 319-330

[9] = acute oral toxicity (LD-50); conditions: in vivo, per os
[10] = tested on: Elektroschock-induzierte Krämpfe; experiment: antagonism of electroshock-induced convulsions (ECS); format: in vivo, Maus; conditions: mouse; corneal electroshock 1 h after oral test substance; tonic extensor convulsions; read-out: ED50 (mg/kg p.o.) ECS
Procedure: Antagonismus gegen Elektroschock-induzierte Krämpfe (Maus) (ECS)
as §2, with “Gruppen von 6 männlichen Mäusen” for “Gruppen von 10 männlichen Mäusen”
Eine Stunde nach Prüfsubstanzgabe wird den.Tieren über Cornea-Elektroden ein Elektroschock verabreicht (Stromstärke 12-22 mA, Dauer 0.2 sec. 50 Hz), nachdem vorher an einer zweiten Kontrollgruppe die Stromstärke ermittelt worden war, die bei 100 % der Tiere einen tonischen Extensorkrampf der hinteren Extremitäten hervorruft.
Die Anzahl der durch die Prüfsubstanz vor einem Extensorkrampf geschützten Tiere dient als Maß der antikonvulsiven Wirkung in diesem Test.
Bei vorhandener Schutzwirkung der Prüfsubstanz wird eine mittlere effektive Dosis (ED-50) grafisch (Litchfield and Wilcoxon) oder rechnerisch (Probitanalyse) ermittelt.
Literatur: E.A. SWINYARD, In: Experimental Models of Epilepsy, Raven Press, New York, 1972, p. 433-458.

[11] = tested on: Pseudo-cercosporella herpotrichoides; experiment: agar plate test with Pseudocercosporella cultures (Versuch V); format: cell-based; conditions: 144 h, 6 days after inoculation, read-out: Wirkungsgrad gegenüber Pseudo-cercosporella herpotrichoides in %; for inhibition of growth at 125 µg/mL: 125 ppm Wirkstoff in Biomalzagar; for inhibition of growth at 250 µg/mL: 250 ppm Wirkstoff in Biomalzagar; for inhibition of growth at 500 µg/mL: 500 ppm Wirkstoff in Biomalzagar
Procedure: Biomalzagar wurde mit den beanspruchten Verbindungen in den in Tabelle 10 angegebenen Konzentrationen versetzt. Nach dem Erstarren des Agars erfolgte die Beimpfung mit Pseudocercosporella-Kulturen. Jeweils 20 µl einer Sporensuspension wurden auf das Zentrum der Agarplatte aufgebracht. Die Versuche wurden 6 Tage nach Beimpfung ausgewertet. Der Wirkungsgrad der Wirkstoffe wird ausgedrückt in % im Vergleich zur Kontrolle (Agarmedium ohne Wirkstoff).

[12] = 60 mg Wirkstoff/Liter Spritzbrühe
[13] = 125 mg Wirkstoff/Liter Spritzbrühe
[14] = 250 mg Wirkstoff/Liter Spritzbrühe
[15] = 500 mg Wirkstoff/Liter Spritzbrühe

Row | Compound | mit Weizenmehltau befallene Blattfläche in % [1, 12] | mit Weizenmehltau befallene Blattfläche in % [1, 13] | mit Weizenmehltau befallene Blattfläche in % [1, 14] [%] | mit Weizenmehltau befallene Blattfläche in % [1, 15] [%] | MIC [2] [µg/mL] | MIC [3] [µg/mL] | MIC [4] [µg/mL] | MIC [5] [µg/mL] | MIC [6] [µg/mL] | Mykosen (Durchmesser in mm) Präparat + Vehikel x2 [7] [mm] | Mykosen Differenz (%) [7] | Mykosen (Durchmesser in mm) Differenz x1 - x2 [7] [mm] | ED50 [8] [mg/kg] | LD50 [9] [mg/kg] | ED50 [10] [mg/kg] | inhibition of growth at 125 µg/mL [11] [%] | inhibition of growth at 250 µg/mL [11] [%] | inhibition of growth at 500 µg/mL [11] [%]
1 | CC1(C)CC(O)(Cn2ccnc2)c2ccccc21 (centres unmarked) [Beispiel 36, 1-(1H-Imidazol-1-ylmethyl)-3,3-dimethyl-indan-1-ol] | 0-3% | 0-3% | 0 | 0 | – | – | – | – | – | – | – | – | – | – | – | – | – | –
2 | Clc1ccccc1C(c1ccccc1)(c1ccccc1)n1ccnc1 [Clotrimazol, reference compound] | – | – | – | – | 3.9 (≈ 11.3 µM) | 0.97 (≈ 2.81 µM) | 0.97 (≈ 2.81 µM) | 0.97 (≈ 2.81 µM) | 1.95 (≈ 5.65 µM) | 7.6 | (100) % | 7 | – | – | – | – | – | –
3 | OC1(Cn2ccnc2)CCc2ccccc21 (centres unmarked) [Verbindung 1 (Tab. 3), 1-Hydroxy-1-(1H-imidazol-1-ylmethyl)-indan] | – | – | – | – | – | – | – | – | – | – | – | – | 70 | 300 | 18.2 | – | – | –
4 | OC1(Cn2ccnc2)CCc2cc(Oc3ccccc3)ccc21 (centres unmarked) [Verbindung 11 (Tab. 3)] | – | – | – | – | – | – | – | – | – | – | – | – | 9.3 | – | – | 100 | 100 | 100
5 | c1ccc(-c2ccc(C3(Cn4ccnc4)CCc4ccccc43)cc2)cc1 (centres unmarked) [Verbindung 13 (Tab. 1)] | – | – | – | – | – | – | – | – | – | – | – | – | 16 | > 300 | 17.3 | 100 | 100 | 100
6 | Clc1ccc(C2(Cn3ccnc3)CCCc3ccccc32)cc1 (centres unmarked) [Verbindung 20 (Tab. 1)] | 3% | 0-3% | 0 | 0 | 1.95 (≈ 6.04 µM) | 0.97 (≈ 3 µM) | 0.97 (≈ 3 µM) | 0.97 (≈ 3 µM) | 0.97 (≈ 3 µM) | 4.3 | (138.5) % | 9.7 | – | – | – | – | – | –
7 | Fc1ccc(C2(Cn3ccnc3)CCCc3ccccc32)c(F)c1 (centres unmarked) [Verbindung 32 (Tab. 1)] | – | – | – | – | – | – | – | – | – | – | – | – | 17.2 | – | 60 | 100 | 100 | 100
8 | Fc1cc(Cl)ccc1C1(Cn2ccnc2)CCCc2ccccc21 (centres unmarked) [Verbindung 33 (Tab. 1)] | – | – | – | – | – | – | – | – | – | – | – | – | 55 | – | 24.6 | 100 | 100 | 100
9 | Cc1ccc(C2(Cn3ccnc3)CCc3ccccc32)cc1C (centres unmarked) [Verbindung 53 (Tab. 1)] | – | – | – | – | – | – | – | – | – | – | – | – | 30 | > 300 | 35.1 | 100 | 100 | 100
10 | c1ccc(-c2ccc(C3(Cn4ccnc4)CCCc4ccccc43)cc2)cc1 (centres unmarked) [Verbindung 60 (Tab. 1)] | – | – | – | – | 0.48 (≈ 1.32 µM) | 0.007 (≈ 0.0192 µM) | 0.06 (≈ 0.165 µM) | 0.24 (≈ 0.658 µM) | 1.95 (≈ 5.35 µM) | 4.5 | (157.1) % | 11 | – | – | – | 100 | 100 | 100
11 | c1ccc(Oc2ccc(C3(Cn4ccnc4)CCc4ccccc43)cc2)cc1 (centres unmarked) [Verbindung 67 (Tab. 1)] | – | – | – | – | 1.95 (≈ 5.32 µM) | 0.06 (≈ 0.164 µM) | 0.97 (≈ 2.65 µM) | 0.97 (≈ 2.65 µM) | 1.95 (≈ 5.32 µM) | 3.2 | (107.1) % | 7.5 | – | – | – | – | – | –
12 | c1ccc(Oc2ccc(C3(Cn4ccnc4)CCCc4ccccc43)cc2)cc1 (centres unmarked) [Verbindung 70 (Tab. 1)] | – | – | – | – | 0.97 (≈ 2.55 µM) | 0.06 (≈ 0.158 µM) | 0.12 (≈ 0.315 µM) | 0.48 (≈ 1.26 µM) | 0.97 (≈ 2.55 µM) | 3 | (182.8) % | 12.8 | – | – | – | – | – | –
